{
  "source": "patent US20030224390A1",
  "about": "“Method of identifying conformation-sensitive binding peptides and uses thereof” (Karo Bio AB, priority 2000, published 2003)",
  "key": {"androgen receptor [1]": {"target": "T1, androgen receptor (Homo sapiens, UniProt P10275)", "T1 sequence (P10275 1-920)": "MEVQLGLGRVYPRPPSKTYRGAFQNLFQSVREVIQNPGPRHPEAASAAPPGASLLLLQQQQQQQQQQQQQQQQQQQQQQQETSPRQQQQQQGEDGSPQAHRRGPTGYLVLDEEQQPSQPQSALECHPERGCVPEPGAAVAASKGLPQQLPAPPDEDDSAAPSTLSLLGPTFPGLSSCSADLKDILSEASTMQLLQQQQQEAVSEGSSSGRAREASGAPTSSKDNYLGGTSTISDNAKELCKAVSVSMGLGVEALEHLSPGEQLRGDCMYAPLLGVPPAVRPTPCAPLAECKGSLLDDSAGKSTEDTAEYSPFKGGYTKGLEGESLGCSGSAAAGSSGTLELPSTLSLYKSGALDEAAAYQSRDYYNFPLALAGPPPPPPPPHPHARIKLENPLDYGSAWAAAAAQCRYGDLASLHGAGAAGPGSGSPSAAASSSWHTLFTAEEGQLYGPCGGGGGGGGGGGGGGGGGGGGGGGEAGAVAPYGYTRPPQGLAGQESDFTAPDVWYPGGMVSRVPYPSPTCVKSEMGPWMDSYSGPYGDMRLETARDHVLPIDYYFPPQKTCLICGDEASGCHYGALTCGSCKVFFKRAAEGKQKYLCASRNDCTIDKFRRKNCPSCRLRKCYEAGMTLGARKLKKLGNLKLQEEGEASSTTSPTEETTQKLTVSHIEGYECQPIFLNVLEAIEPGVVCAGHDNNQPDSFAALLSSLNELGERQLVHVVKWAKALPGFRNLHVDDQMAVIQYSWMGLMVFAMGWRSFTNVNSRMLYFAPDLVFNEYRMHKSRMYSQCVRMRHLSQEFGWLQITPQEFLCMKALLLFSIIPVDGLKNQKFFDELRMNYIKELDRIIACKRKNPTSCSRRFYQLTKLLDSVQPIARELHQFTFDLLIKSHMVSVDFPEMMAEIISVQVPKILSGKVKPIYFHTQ", "format": "cell-based", "set-up": "expressed in transfected cells", "description": "We used a mammalian two-hybrid system to determine specificities of the AR-binding peptides previously identified, through screening of the aforementioned yeast library, as ligand-dependent in their binding activity. Ligand was provided to the cells so the interaction could be observed. The human hepatoma cell line, Huh-7, was used as the recipient of two-hybrid vectors, pM and pVP16 (Clontech) (FIGS. 6A and 6B), containing fusions with peptide and AR, respectively. According to Clontech literature, the Clontech vectors pM and VP16 generate fusions of protein X with the GAL4 DNA-BD and fusions of protein Y with the VP16AD, in the Mammalian MM Two-Hybrid Assay Kit (#K1602-1). (Note: pM and VP16 contain unique cloning sites in the same order and reading frame as the DNA-BD and AD, respectively, vectors in the yeast […] Two-Hybrid Systems.) A third vector, pG5CAT, provides a CAT reporter gene under the control of a GAL4-responsive element and minimal promoter of the adenovirus E1b. The three vectors are cotransfected into any suitable mammalian host cell line by standard methods. The interaction between proteins X and Y is then assayed by measuring CAT gene expression by any standard method. In the absence of activation (i.e., no protein-protein interaction), the minimal E1b promoter will not express significant levels of CAT.\nBriefly, cells are seeded in a 24-well culture plate to a density of 50-80% confluence in phenol red-free media containing charcoal-dextran stripped fetal bovine serum (10%). Following incubation overnight, cells are transfected with plasmids pM-peptide, pVP16-AR, pCMV-b-gal, and p5XGAL-Luc3 DNAs using lipofectamine 2000 (LifeTech) according to the manufacturer's protocol. Transfections are allowed to proceed for 6 hours and the transfection media is aspirated and replaced with recovery media for 18 hours. Following the recovery period, cells are treated with compound for 24 hours prior to cell harvesting. Cells are washed with PBS and then lysed using the lysis buffer from the Galacto-Light Plus β-galactosidase assay kit (Tropix). Assays for luciferase and β-galactosidase were performed as described by the manufacturer. Peptide/AR interactions are described in terms of the luciferase activity normalized for transfection efficiency using β-galactosidase activity (see FIG. 4A). Two types of useful information arose from these methods: 1) we generated a panel of useful peptide probes to analyze the conformational state of AR, and 2) we “fingerprinted” AR modulators with respect to AR conformation (FIG. 4B). […] FIG. 4B is the converse of 4A. It compares the ability of six ligands (DHT, MPA, CYP, RU486, FLUT and DHEAs to interact with AR in the presence of each of four peptides (D30, 5G11, B8H3 and […]). Thus, it is a “fingerprint” of each of the six ligands using a four peptide panel. (Note that “1269” and D30” refer to the same peptide.)"}, "androgen receptor [2]": {"target": "T1, androgen receptor", "experiment": "Yeast two-hybrid screening of unbiased X15 peptide library, ligand induced β-galactosidase activity (FIG. 3, Table 503)", "format": "cell-based", "set-up": "expressed in transfected cells; host or cells: Saccharomyces cerevisiae PJ69-4α; ligand induced β-galactosidase activity, No Lig / ligand induced β-galactosidase activity, DHT / ligand induced β-galactosidase activity, CPA / ligand induced β-galactosidase activity, RU / ligand induced β-galactosidase activity, Test / ligand induced β-galactosidase activity, MPA: unit not given here", "description": "Our library contained predominantly 15 random amino acid residues/peptide in order to identify motifs that might interact with nuclear receptor domains. If ligand is provided to the cells, one can screen for peptides that interact with the ligand-bound receptor. […] Included at the ends of the oligonucleotide were the synthetic restriction endonuclease cleavage sites, EcoRI or Mfe I (5′ end) and Sal I (3′ end). Oligonucleotides were annealed, then cleaved with excess restriction endonuclease and purified on agarose gels. The purified set of oligonucleotides was subcloned as an in-frame carboxy-terminal fusion to a Gal4 DNA binding domain (plasmid vector pMA424 derivative). […] The transformation mix was divided and grown on plates of selective media containing ligand and 25 mM 3-aminotriazole at 30° C. until colonies appeared in 3-7 days. […] Dihydrotestosterone (DHT) and medroxyprogesterone (MPA) were added to the media at 100 nM to identify peptides that interact with the receptor in the presence of ligand. After colonies appeared they were picked and dispersed into individual wells of a 96-well plate containing rich media (YPD).\nTo determine ligand dependence, two microliter aliquots were removed from the cell suspension, and arrayed and spotted onto each of two rectangular agar plates, one with 100 nM ligand and one without ligand. Growth was monitored daily.\nA secondary test of ligand dependent activation was performed using the integrated GAL4-driven lacZ gene. Cell suspensions of the initial positive clones were diluted 20-fold into 20 microliters of rich media in a microplate and grown overnight at 30° C. in the presence and absence of ligand. Microplates were centrifuged for 5 minutes at 3000 rpm in a swinging table top centrifuge to pellet the yeast cells, and the overlying media was aspirated. […] An OD650 density determination was made to normalize the β-galactosidase activity. β-galactosidase activity was monitored following the addition of buffer containing chlorophenol red-β-galactopyranoside (CPRG) (Boehringer Mannheim) substrate at a final concentration of 0.5 mM. […] The maximum slope value of this measurement was normalized to cell density from the initial OD650 value, and the relative ligand dependence of β-galactosidase was determined by comparing the values plus and minus ligand.\nIn FIG. 3, all of these ligands were tested. The plasmids from true positives were extracted using standard yeast extraction protocols and re-transformed to verify the positive phenotype."}, "[3]": {"target": "T2, Gal4 transcriptional activation domain (AD) fused in frame with AR (pGAD-C2) (yeast), P10275", "T2 chain": "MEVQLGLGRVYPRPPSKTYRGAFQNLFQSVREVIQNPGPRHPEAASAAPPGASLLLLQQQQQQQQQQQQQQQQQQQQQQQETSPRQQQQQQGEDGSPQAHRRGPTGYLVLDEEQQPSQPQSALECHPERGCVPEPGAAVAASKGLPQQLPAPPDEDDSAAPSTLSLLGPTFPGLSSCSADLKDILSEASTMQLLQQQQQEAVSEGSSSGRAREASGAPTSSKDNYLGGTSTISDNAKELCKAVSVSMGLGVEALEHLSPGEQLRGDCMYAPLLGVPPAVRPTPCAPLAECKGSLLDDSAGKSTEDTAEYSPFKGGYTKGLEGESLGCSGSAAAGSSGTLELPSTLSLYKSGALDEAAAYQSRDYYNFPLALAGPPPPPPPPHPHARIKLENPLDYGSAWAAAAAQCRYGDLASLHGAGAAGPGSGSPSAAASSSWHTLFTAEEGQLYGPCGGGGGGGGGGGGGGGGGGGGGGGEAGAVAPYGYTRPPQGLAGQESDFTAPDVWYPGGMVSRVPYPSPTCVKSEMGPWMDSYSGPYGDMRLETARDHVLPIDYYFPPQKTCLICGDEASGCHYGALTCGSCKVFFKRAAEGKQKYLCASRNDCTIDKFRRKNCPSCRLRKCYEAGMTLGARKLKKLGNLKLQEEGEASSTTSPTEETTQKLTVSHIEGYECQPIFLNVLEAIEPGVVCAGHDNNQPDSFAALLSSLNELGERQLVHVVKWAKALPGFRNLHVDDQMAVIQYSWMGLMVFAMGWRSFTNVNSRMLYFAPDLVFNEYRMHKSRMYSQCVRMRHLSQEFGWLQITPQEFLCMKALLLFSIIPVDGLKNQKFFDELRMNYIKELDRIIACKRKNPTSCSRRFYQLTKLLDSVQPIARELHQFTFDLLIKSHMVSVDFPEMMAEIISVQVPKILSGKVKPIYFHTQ", "experiment": "cell-based or functional assay"}, "[4]": {"target": "T3, pVP16-AR (VP16 activation domain fused to androgen receptor), P10275", "T3 chain": "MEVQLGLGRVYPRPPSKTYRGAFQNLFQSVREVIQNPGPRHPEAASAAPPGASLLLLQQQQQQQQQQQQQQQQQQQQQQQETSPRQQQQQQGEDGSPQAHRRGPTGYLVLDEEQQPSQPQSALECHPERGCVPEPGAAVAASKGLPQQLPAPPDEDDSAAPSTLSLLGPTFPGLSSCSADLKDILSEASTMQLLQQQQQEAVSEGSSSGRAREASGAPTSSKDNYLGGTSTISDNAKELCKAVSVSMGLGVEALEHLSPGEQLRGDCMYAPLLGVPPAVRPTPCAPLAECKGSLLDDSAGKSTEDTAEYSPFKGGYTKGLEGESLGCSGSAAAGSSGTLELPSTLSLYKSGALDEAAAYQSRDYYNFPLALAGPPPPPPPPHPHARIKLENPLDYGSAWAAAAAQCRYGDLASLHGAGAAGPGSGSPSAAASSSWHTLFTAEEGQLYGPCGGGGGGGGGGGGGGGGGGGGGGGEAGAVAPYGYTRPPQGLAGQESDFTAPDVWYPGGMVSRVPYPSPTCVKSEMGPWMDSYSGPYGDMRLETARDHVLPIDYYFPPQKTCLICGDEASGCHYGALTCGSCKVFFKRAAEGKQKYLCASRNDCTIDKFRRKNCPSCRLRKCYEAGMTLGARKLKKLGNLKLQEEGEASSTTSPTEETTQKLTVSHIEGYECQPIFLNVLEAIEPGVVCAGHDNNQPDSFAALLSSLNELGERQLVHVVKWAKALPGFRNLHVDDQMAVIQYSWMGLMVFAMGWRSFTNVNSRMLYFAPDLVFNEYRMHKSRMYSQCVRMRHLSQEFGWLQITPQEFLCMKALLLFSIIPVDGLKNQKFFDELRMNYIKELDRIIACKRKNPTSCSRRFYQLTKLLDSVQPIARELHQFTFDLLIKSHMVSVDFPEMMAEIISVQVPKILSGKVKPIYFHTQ", "experiment": "cell-based or functional assay"}},
  "data": [
    {"molecule": "HPTHSSRLWELLMEATPTM [D30]", "values": [
      {"measurement": "luciferase normalized to β-galactosidase, CYP.", "setting": "androgen receptor [1]", "result": 11.18},
      {"measurement": "luciferase normalized to β-galactosidase, DHT", "setting": "androgen receptor [1]; mammalian two-hybrid, Huh-7 cells, ligand DHT", "result": 12.59},
      {"measurement": "luciferase normalized to β-galactosidase, MPA", "setting": "androgen receptor [1]; mammalian two-hybrid, Huh-7 cells, ligand MPA", "result": 15.62},
      {"measurement": "luciferase normalized to β-galactosidase, RU486", "setting": "androgen receptor [1]; mammalian two-hybrid, Huh-7 cells, ligand RU486", "result": 0.8461},
      {"measurement": "luciferase normalized to β-galactosidase, no compound", "setting": "androgen receptor [1]; mammalian two-hybrid, Huh-7 cells, no compound", "result": 0.03854}
    ]},
    {"molecule": "EFRQSFVSEILGGGWLPLDLOPS [M2H3]", "values": [
      {"measurement": "Fold induction", "setting": "androgen receptor [2]; untitled table before Table 503, values match DHT / No Lig of Table 503", "result": 10},
      {"measurement": "ligand induced β-galactosidase activity, CPA", "setting": "androgen receptor [2]; yeast two-hybrid, ligand CPA", "result": 8.592},
      {"measurement": "ligand induced β-galactosidase activity, DHT", "setting": "androgen receptor [2]; yeast two-hybrid, ligand DHT", "result": 24.12},
      {"measurement": "ligand induced β-galactosidase activity, MPA", "setting": "androgen receptor [2]; yeast two-hybrid, ligand MPA", "result": 19.25},
      {"measurement": "ligand induced β-galactosidase activity, RU", "setting": "androgen receptor [2]; yeast two-hybrid, ligand RU", "result": 6.8},
      {"measurement": "ligand induced β-galactosidase activity, Test", "setting": "androgen receptor [2]; yeast two-hybrid, ligand Test", "result": 26.57},
      {"measurement": "ligand induced β-galactosidase activity, No Lig", "setting": "androgen receptor [2]; yeast two-hybrid, no ligand", "result": 2.53}
    ]},
    {"molecule": "B5G11, P04386 1-147 (modifications not checked) MKLLSSIEQACDICRLKKLKCSKEKPKCAKCLKNNWECRYSPKTKRSPLTRAHLTEVESRLERLEQLFLLIFPREDLDMILKMDSLQDIKALLTGLFVQDNVNKDAVTDRLASVETDMPLTLRQHRISATSSSEESSNKGQRQLTVSEFRSSVFEQMYLCTGGSLDLQPS", "values": [
      {"measurement": "Fold induction, yeast two-hybrid", "setting": "[3]", "result": 6, "unit": "fold"},
      {"measurement": "β-galactosidase activity, yeast two-hybrid; CPA", "setting": "[3]", "result": 0.973},
      {"measurement": "β-galactosidase activity, yeast two-hybrid; DHT", "setting": "[3]", "result": 3.96},
      {"measurement": "β-galactosidase activity, yeast two-hybrid; No Lig", "setting": "[3]", "result": 0.638},
      {"measurement": "β-galactosidase activity, yeast two-hybrid; RU", "setting": "[3]", "result": 0.9},
      {"measurement": "normalized luciferase activity, mammalian two-hybrid; CYP.", "setting": "[4]", "result": 4.46},
      {"measurement": "normalized luciferase activity, mammalian two-hybrid; DHT", "setting": "[4]", "result": 15.8},
      {"measurement": "normalized luciferase activity, mammalian two-hybrid; MPA", "setting": "[4]", "result": 8.03},
      {"measurement": "normalized luciferase activity, mammalian two-hybrid; RU486", "setting": "[4]", "result": 0.105},
      {"measurement": "normalized luciferase activity, mammalian two-hybrid; no compound", "setting": "[4]", "result": 0.0503}
    ]}
  ]
}
